This is an account of results in ChEMBL document CHEMBL3351867, “Sequence-specific DNA alkylation and transcriptional inhibition by long-chain hairpin pyrrole-imidazole polyamide-chlorambucil conjugates targeting CAG/CTG trinucleotide repeats” (Bioorg Med Chem, 2014).

Molecules are shown by their SMILES. Active and inactive are the calls of the source. No cut-off for these calls is given here.

A short description of experiment [1]: Induction of DNA alkylation of 5'-Texas Red-labeled 214 bp DNA fragments with (CAG)12 repeat sequence (unknown origin) at 2.5 to 20 nM after 18 hrs by high resolution gel electrophoresis.
Experiment [2] in a line: Induction of DNA alkylation of 5'-Texas Red-labeled 214 bp DNA fragments with (5'-TTG(CTG)12-3' repeat sequence (unknown origin) at 2.5 to 20 nM after 18 hrs by high resolution gel electrophoresis.
A short description of experiment [3]: Induction of DNA alkylation of 5'-Texas Red-labeled 214 bp DNA fragments with (CTG)12 repeat sequence (unknown origin) at 2.5 to 20 nM after 18 hrs by high resolution gel electrophoresis.
The nature of experiment [4]: Induction of DNA alkylation of 5'-Texas Red-labeled 214 bp DNA fragments with (5'-(CAG)12CAA-3' repeat sequence (unknown origin) at 2.5 to 20 nM after 18 hrs by high resolution gel electrophoresis.
The nature of experiment [5]: Binding affinity to biotinylated (5'-AGCAGCAGCA-3'/5'-TGCTGCTGCT-3') hairpin DNA (unknown origin) assessed as […] of compound from 2:1 compound and DNA complex by SPR assay. A general note: In SPR one partner is held on a chip, and binding of the other changes the refractive index at the surface.
A short description of experiment [6]: Binding affinity to biotinylated (5'-AGCAGCAGCA-3'/5'-TGCTGCTGCT-3') hairpin DNA (unknown origin) assessed as […] of compound from 1:1 compound and DNA complex by SPR assay.
The nature of experiment [7]: Induction of DNA alkylation of DNA fragments with (CTG)12 repeat sequence (unknown origin) assessed as inhibition of T7 RNA polymerase-mediated transcription using T7 promoter primer and sp6 promoter primer at 10 to 30 nM after 18 hrs by […] staining based high resolution gel electrophoresis.
The nature of experiment [8]: Induction of DNA alkylation of DNA fragments with (CAG)12 repeat sequence (unknown origin) assessed as inhibition of T7 RNA polymerase-mediated transcription using T7 promoter primer and sp6 promoter primer at 10 to 30 nM after 18 hrs by […] staining based high resolution gel electrophoresis.
A short description of experiment [9]: Binding affinity to biotinylated (5'-AGCAGCAGCA-3'/5'-TGCTGCTGCT-3') hairpin DNA (unknown origin) by SPR assay.
Experiment [10] is described as follows: Induction of DNA alkylation of 5'-Texas Red-labeled 214 bp DNA fragments with (CAG)12 repeat sequence (unknown origin) at 150 nmol after 18 hrs by high resolution gel electrophoresis.

Turning to `CC(=O)Nc1cn(C)c(C(=O)Nc2cc(C(=O)NCCC(=O)Nc3cn(C)c(C(=O)Nc4cc(C(=O)NCCC(=O)Nc5cn(C)c(C(=O)Nc6cc(C(=O)NCCCC(=O)Nc7cn(C)c(C(=O)Nc8cc(C(=O)NCCC(=O)Nc9cn(C)c(C(=O)Nc%10cc(C(=O)NCCC(=O)Nc%11cn(C)c(C(=O)Nc%12cc(C(=O)NCCC(=O)NCCCN(C)CCCNC(=O)CCCc%13ccc(N(CCCl)CCCl)cc%13)n(C)c%12)n%11)n(C)c%10)n9)n(C)c8)n7)n(C)c6)n5)n(C)c4)n3)n(C)c2)n1`, the outcome in [1], in experiment [2], in experiment [3] and in experiment [4] was Active.

Consider `CC(=O)Nc1cn(C)c(C(=O)Nc2cc(C(=O)NCCC(=O)Nc3cn(C)c(C(=O)Nc4cc(C(=O)NCCC(=O)NCCCN(C)CCCNC(=O)CCCc5ccc(N(CCCl)CCCl)cc5)n(C)c4)n3)n(C)c2)n1`, for which the result in experiment [1] and in experiment [3] was inactive.

Broadly, the Kd is the equilibrium constant for the complex coming apart. With `CC(=O)Nc1cn(C)c(C(=O)Nc2cc(C(=O)NCCC(=O)Nc3cn(C)c(C(=O)Nc4cc(C(=O)NCCC(=O)NCCCN(C)CCCN)n(C)c4)n3)n(C)c2)n1`, the figures for the Kd in experiment [5] and in [6] were 0.013 µM and 0.61 µM, respectively.

On to `CC(=O)Nc1cn(C)c(C(=O)Nc2cc(C(=O)NCCC(=O)Nc3cn(C)c(C(=O)Nc4cc(C(=O)NCCC(=O)Nc5cn(C)c(C(=O)Nc6cc(C(=O)NCC[C@@H](N)C(=O)Nc7cn(C)c(C(=O)Nc8cc(C(=O)NCCC(=O)Nc9cn(C)c(C(=O)Nc%10cc(C(=O)NCCC(=O)Nc%11cn(C)c(C(=O)Nc%12cc(C(=O)NCCC(=O)NCCCN(C)CCCNC(=O)CCCc%13ccc(N(CCCl)CCCl)cc%13)n(C)c%12)n%11)n(C)c%10)n9)n(C)c8)n7)n(C)c6)n5)n(C)c4)n3)n(C)c2)n1`, for which the Activity entry in [7] and in experiment [8] was “Dose-dependent effect” each time. Moreover, the outcome in experiment [2] and in [4] was Active.

Take `CC(=O)Nc1cn(C)c(C(=O)Nc2cc(C(=O)NCCC(=O)Nc3cn(C)c(C(=O)Nc4cc(C(=O)NCCC(=O)Nc5cn(C)c(C(=O)Nc6cc(C(=O)NCCCC(=O)Nc7cn(C)c(C(=O)Nc8cc(C(=O)NCCC(=O)Nc9cn(C)c(C(=O)Nc%10cc(C(=O)NCCC(=O)Nc%11cn(C)c(C(=O)Nc%12cc(C(=O)NCCC(=O)NCCCN(C)CCCN)n(C)c%12)n%11)n(C)c%10)n9)n(C)c8)n7)n(C)c6)n5)n(C)c4)n3)n(C)c2)n1`: in experiment [9], binding was put at a Kd of 0.053 µM.

On to `CC(=O)Nc1cn(C)c(C(=O)Nc2cc(C(=O)NCCC(=O)Nc3cn(C)c(C(=O)Nc4cc(C(=O)NCCCC(=O)Nc5cn(C)c(C(=O)Nc6cc(C(=O)NCCC(=O)Nc7cn(C)c(C(=O)Nc8cc(C(=O)NCCC(=O)NCCCN(C)CCCNC(=O)CCCc9ccc(N(CCCl)CCCl)cc9)n(C)c8)n7)n(C)c6)n5)n(C)c4)n3)n(C)c2)n1`, for which the outcome in experiment [1] was inactive. In addition, the result in [10] and in [3] was Active.

`CC(=O)Nc1cn(C)c(C(=O)Nc2cc(C(=O)NCCC(=O)Nc3cn(C)c(C(=O)Nc4cc(C(=O)NCCC(=O)Nc5cn(C)c(C(=O)Nc6cc(C(=O)NCC[C@@H](N)C(=O)Nc7cn(C)c(C(=O)Nc8cc(C(=O)NCCC(=O)Nc9cn(C)c(C(=O)Nc%10cc(C(=O)NCCC(=O)Nc%11cn(C)c(C(=O)Nc%12cc(C(=O)NCCC(=O)NCCCN(C)CCCN)n(C)c%12)n%11)n(C)c%10)n9)n(C)c8)n7)n(C)c6)n5)n(C)c4)n3)n(C)c2)n1`: the outcome in experiment [7] and in experiment [8] was inactive. The compound further gave a Kd in experiment [9] of 0.011 µM.

In experiment [9], `CC(=O)Nc1cn(C)c(C(=O)Nc2cc(C(=O)NCCC(=O)Nc3cn(C)c(C(=O)Nc4cc(C(=O)NCCCC(=O)Nc5cn(C)c(C(=O)Nc6cc(C(=O)NCCC(=O)Nc7cn(C)c(C(=O)Nc8cc(C(=O)NCCC(=O)NCCCN(C)CCCN)n(C)c8)n7)n(C)c6)n5)n(C)c4)n3)n(C)c2)n1` gave a Kd of 0.014 µM.
